Values quoted from earlier work, collected in patent publication US12569571B2, “Salt responsive nanogels and nanoparticles” (HOWARD UNIVERSITY, priority 2016, dated 2026).

Conditions: studies have shown

CNC [dimethylamine]
pKa (apparent pKa for PEI): about 10
